Legend:
PIM3 = PIM3 (Homo sapiens, UniProt Q86V86); experiment: Pim3 ATP depletion assay; type: biochemical; details: 40 μM ATP
Procedure: The activity of PIM3 is measured using a luciferase-luciferin based ATP detection reagent to quantify ATP depletion resulting from kinase-catalyzed phosphoryl transfer to a peptide substrate. Compounds to be tested are dissolved in 100% DMSO and directly distributed into white 384-well plates at 0.5 μl per well. To start the reaction, 10 μl of 10 nM Pim3 kinase and 200 μM BAD peptide (RSRHSSYPAGT-OH) in assay buffer (50 mM HEPES pH 7.5, 5 mM MgCl2, 1 mM DTT, 0.05% BSA) is added into each well. After 15 minutes, 10 μl of 80 μM ATP in assay buffer is added. Final assay concentrations are 5 nM PIM1, 40 μM ATP, 100 μM BAD peptide and 2.5% DMSO. The reaction is performed until approximately 50% of the ATP is depleted, then stopped by the addition of 20 μl KinaseGlo Plus (Promega Corporation) solution. The stopped reaction is incubated for 10 minutes and the remaining ATP detected via luminescence on the Victor2 (Perkin Elmer).

PIM1 = PIM1 (Homo sapiens, UniProt P11309); experiment: Pim1 ATP depletion assay; type: biochemical; details: 20 μM ATP, 2.5 nM PIM1
Procedure: The activity of PIM1 is measured using a luciferase-luciferin based ATP detection reagent to quantify ATP depletion resulting from kinase-catalyzed phosphoryl transfer to a peptide substrate. Compounds to be tested are dissolved in 100% DMSO and directly distributed into white 384-well plates at 0.5 μl per well. To start the reaction, 10 μl of 5 nM Pim1 kinase and 80 μM BAD peptide (RSRHSSYPAGT-OH) in assay buffer (50 mM HEPES pH 7.5, 5 mM MgCl2, 1 mM DTT, 0.05% BSA) is added into each well. After 15 minutes, 10 μl of 40 μM ATP in assay buffer is added. Final assay concentrations are 2.5 nM PIM1, 20 μM ATP, 40 μM BAD peptide and 2.5% DMSO. The reaction is performed until approximately 50% of the ATP is depleted, then stopped with the addition of 20 μl KinaseGlo Plus (Promega Corporation) solution. The stopped reaction is incubated for 10 minutes and the remaining ATP detected via luminescence on the Victor2 (Perkin Elmer). […] IC50, the half maximal inhibitory concentration, represents the concentration of a test compound that is required for 50% inhibition of its target in vitro.

KMS11 cells = experiment: Cell proliferation assay (CellTiter-Glo); type: cell-based; details: KMS-11, 72 h; KMS11 human myeloma cell line, 3 days
Procedure: KMS11 (human myeloma cell line), were cultured in IMDM supplemented with 10% FBS, sodium pyruvate and antibiotics. Cells were plated in the same medium at a density of 2000 cells per well into 96 well tissue culture plates, with outside wells vacant, on the day of assay. MM1.s (human myeloma cell line), were cultured in RPMI1640 supplemented with 10% FBS, sodium pyruvate and antibiotics. Cells were plated in the same medium at a density of 5000 cells per well into 96 well tissue culture plates, with outside wells vacant, on the day of assay.
Test compounds supplied in DMSO were diluted into DMSO at 500 times the desired final concentrations before dilution into culture media to 2 times final concentrations. Equal volumes of 2× compounds were added to the cells in 96 well plates and incubated at 37° C. for 3 days.
After 3 days plates were equilibrated to room temperature and equal volume of CellTiter-Glow Reagent (Promega) was added to the culture wells. The plates were agitated briefly and luminescent signal was measured with luminometer. The percent inhibition of the signal seen in cells treated with DMSO alone vs. cells treated with control compound was calculated and used to determine EC50 values (i.e., the concentration of a test compound that is required to obtain 50% of the maximum effect in the cells) for tested compounds, as shown in Example 41.

PIM2 = PIM2 (Homo sapiens, UniProt Q9P1W9); experiment: Pim2 ATP depletion assay; type: biochemical; details: 4 μM ATP, 5 nM PIM2
Procedure: The activity of PIM2 is measured using a luciferase-luciferin based ATP detection reagent to quantify ATP depletion resulting from kinase-catalyzed phosphoryl transfer to a peptide substrate. Compounds to be tested are dissolved in 100% DMSO and directly distributed into white 384-well plates at 0.5 μl per well. To start the reaction, 10 μl of 10 nM Pim2 kinase and 20 μM BAD peptide (RSRHSSYPAGT-OH) in assay buffer (50 mM HEPES pH 7.5, 5 mM MgCl2, 1 mM DTT, 0.05% BSA) is added into each well. After 15 minutes, 10 μl of 8 μM ATP in assay buffer is added. Final assay concentrations are 5 nM PIM2, 4 μM ATP, 10 μM BAD peptide and 2.5% DMSO. The reaction is performed until approximately 50% of the ATP is depleted, then stopped with the addition of 20 μl KinaseGlo Plus (Promega Corporation) solution. The stopped reaction is incubated for 10 minutes and the remaining ATP detected via luminescence on the Victor2 (Perkin Elmer).

Sequence of PIM2 (Q9P1W9 whole entry): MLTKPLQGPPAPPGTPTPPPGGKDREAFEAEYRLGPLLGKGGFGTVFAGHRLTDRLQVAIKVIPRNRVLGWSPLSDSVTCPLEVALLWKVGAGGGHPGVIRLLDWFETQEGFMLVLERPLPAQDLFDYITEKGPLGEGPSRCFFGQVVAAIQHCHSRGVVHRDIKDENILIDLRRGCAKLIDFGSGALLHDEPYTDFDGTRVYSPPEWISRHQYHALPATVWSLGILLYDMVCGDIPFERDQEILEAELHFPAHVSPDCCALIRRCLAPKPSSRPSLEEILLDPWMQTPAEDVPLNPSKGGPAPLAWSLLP
Sequence of PIM1 (P11309 whole entry): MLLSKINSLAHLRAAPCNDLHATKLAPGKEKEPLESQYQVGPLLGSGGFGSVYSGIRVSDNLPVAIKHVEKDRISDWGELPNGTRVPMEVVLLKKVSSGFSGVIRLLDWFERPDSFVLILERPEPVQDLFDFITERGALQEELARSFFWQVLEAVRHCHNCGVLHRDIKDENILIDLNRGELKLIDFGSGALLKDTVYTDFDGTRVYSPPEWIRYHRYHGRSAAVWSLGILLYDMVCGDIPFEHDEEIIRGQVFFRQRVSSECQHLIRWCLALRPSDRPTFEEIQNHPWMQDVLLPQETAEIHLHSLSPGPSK

Compound	IC50 (PIM3) [nM]	IC50 (PIM1) [nM]	EC50 (KMS11 cells) [nM]	IC50 (PIM2) [nM]
Nc1ccc(-c2cccc(F)c2F)nc1-c1cc2c(N3CCC[C@H](N)C3)ccnc2cn1 [Example 18, (S)-2-(4-(3-aminopiperidin-1-yl)-1,7-naphthyridin-6-yl)-6-(2,3-difluorophenyl)pyridin-3-amine]	4	2	4900	71
Nc1ccc(-c2c(F)cccc2F)nc1-c1cc2c(N3CCC[C@H](N)C3)ccnc2cn1 [Example 9, (S)-2-(4-(3-aminopiperidin-1-yl)-1,7-naphthyridin-6-yl)-6-(2,6-difluorophenyl)pyridin-3-amine]	6	1	3700	40
C[C@@H]1C[C@H](N)CN(c2ccnc3ccc(-c4cccc(-c5c(F)cccc5F)n4)cc23)C1 [Example 34, (3S,5R)-1-(6-(6-(2,6-difluorophenyl)pyridin-2-yl)quinolin-4-yl)-5-methylpiperidin-3-amine]	7	2	–	33
CN(C)C(=O)c1ccc(F)c(-c2ccc(N)c(-c3cc4c(N5CCC[C@H](N)C5)ccnc4cn3)n2)c1 [Example 16, (S)-3-(5-amino-6-(4-(3-aminopiperidin-1-yl)-1,7-naphthyridin-6-yl)pyridin-2-yl)-4-fluoro-N,N-dimethylbenzamide]	41	10	4000	120
N[C@H]1CCCN(c2ccnc3ccc(-c4cccc(-c5c(F)cccc5F)n4)cc23)C1 [Example 26, (S)-1-(6-(6-(2,6-difluorophenyl)pyridin-2-yl)quinolin-4-yl)piperidin-3-amine]	26	16	–	331
Nc1ccc(-c2cccc(S(N)(=O)=O)c2)nc1-c1cc2c(N3CCC[C@H](N)C3)ccnc2cn1 [Example 21, (S)-3-(5-amino-6-(4-(3-aminopiperidin-1-yl)-1,7-naphthyridin-6-yl)pyridin-2-yl)benzenesulfonamide]	8	2	–	160
CC(C)NC(=O)c1ccc(F)c(-c2ccc(N)c(-c3cc4c(N5CCC[C@@H](N)C5)ccnc4cn3)n2)c1 [Example 8, (R)-3-(5-amino-6-(4-(3-aminopiperidin-1-yl)-1,7-naphthyridin-6-yl)pyridin-2-yl)-4-fluoro-N-isopropylbenzamide]	21	16	4500	81
Nc1ccc(-c2ccc(F)cc2F)nc1-c1cc2c(N3CCC[C@H](N)C3)ccnc2cn1 [Example 17, (S)-2-(4-(3-aminopiperidin-1-yl)-1,7-naphthyridin-6-yl)-6-(2,4-difluorophenyl)pyridin-3-amine]	13	4	–	151
Cc1cc(-c2ccnc3cnc(-c4nc(-c5c(F)cccc5F)ccc4N)cc23)cc(N)n1 [Example 3, 4-(6-(3-amino-6-(2,6-difluorophenyl)pyridin-2-yl)-1,7-naphthyridin-4-yl)-6-methylpyridin-2-amine]	25	15	–	809
Cc1cc(-c2ccnc3cnc(-c4nc(-c5cc(C(=O)NC(C)C)ccc5F)ccc4N)cc23)cc(N)n1 [Example 4, 3-(5-amino-6-(4-(2-amino-6-methylpyridin-4-yl)-1,7-naphthyridin-6-yl)pyridin-2-yl)-4-fluoro-N-isopropylbenzamide]	40	24	–	350
CS(=O)(=O)c1cccc(-c2ccc(N)c(-c3cc4c(N5CCC[C@H](N)C5)ccnc4cn3)n2)c1 [Example 22, (S)-2-(4-(3-aminopiperidin-1-yl)-1,7-naphthyridin-6-yl)-6-(3-(methylsulfonyl)phenyl)pyridin-3-amine]	10	4	–	280
N[C@@H]1CN(c2ccnc3ccc(-c4cccc(-c5c(F)cccc5F)n4)cc23)CC[C@H]1O [Example 35, (3R,4R)-3-amino-1-(6-(6-(2,6-difluorophenyl)pyridin-2-yl)quinolin-4-yl)piperidin-4-ol]	21	19	–	373
COc1cccc(-c2ccc(N)c(-c3cc4c(N5CCC[C@H](N)C5)ccnc4cn3)n2)n1 [Example 14, (S)-6-(4-(3-aminopiperidin-1-yl)-1,7-naphthyridin-6-yl)-6′-methoxy-2,2′-bipyridin-5-amine]	8	6	–	132
N[C@H]1CCCN(c2ccnc3ccc(-c4nccc(-c5ccccc5F)n4)cc23)C1 [Example 30]	20	8	–	347
Nc1ccc(-c2ccc(F)cc2)nc1-c1cc2c(N3CCC[C@H](N)C3)ccnc2cn1 [Example 19, (S)-2-(4-(3-aminopiperidin-1-yl)-1,7-naphthyridin-6-yl)-6-(4-fluorophenyl)pyridin-3-amine]	7	6	4000	102
N[C@H]1CCCN(c2ccnc3ccc(-c4cccc(-c5nccs5)n4)cc23)C1 [Example 27, (S)-1-(6-(6-(thiazol-2-yl)pyridin-2-yl)quinolin-4-yl)piperidin-3-amine]	10	10	940	45
CC(C)NC(=O)c1ccc(F)c(-c2ccc(N)c(-c3cc4c(N5CCC[C@H](N)C5)c(F)cnc4cn3)n2)c1 [Example 2, (S)-3-(5-amino-6-(4-(3-aminopiperidin-1-yl)-3-fluoro-1,7-naphthyridin-6-yl)pyridin-2-yl)-4-fluoro-N-isopropylbenzamide]	37	18	–	258
N[C@H]1CCCN(c2ccnc3ccc(-c4nccc(-c5c(F)cccc5F)n4)cc23)C1 [Example 29]	8	6	–	132
N[C@@H]1CN(c2ccnc3ccc(-c4cccc(-c5nccs5)n4)cc23)CC[C@H]1O [Example 36, (3R,4R)-3-amino-1-(6-(6-(thiazol-2-yl)pyridin-2-yl)quinolin-4-yl)piperidin-4-ol]	9	9	–	75
N[C@@H]1CN(c2ccnc3ccc(-c4cccc(-c5c(F)cccc5F)n4)cc23)CC[C@H]1F [Example 32, (3R,4R)-1-(6-(6-(2,6-difluorophenyl)pyridin-2-yl)quinolin-4-yl)-4-fluoropiperidin-3-amine]	42	27	–	604
N[C@@H]1CN(c2ccnc3ccc(-c4cccc(-c5nccs5)n4)cc23)CC[C@H]1F [Example 33, (3R,4R)-4-fluoro-1-(6-(6-(thiazol-2-yl)pyridin-2-yl)quinolin-4-yl)piperidin-3-amine]	21	22	–	244
